Results taken from ChEMBL document CHEMBL5543084, “Development of cannabidiol derivatives as potent broad-spectrum antibacterial agents with membrane-disruptive mechanism” (Eur J Med Chem, 2024).
Values after ≈ are worked out from the molar mass of the structure shown. Active and inactive are the calls of the source. The calls are words filed in the database; no cut-off is given here.

Key:
Staphylococcus aureus [1] = experiment: Antibacterial activity against methicillin-resistant Staphylococcus aureus N315 assessed as inhibition of bacterial growth incubated for 24 hrs by broth dilution method; assay type: functional
Staphylococcus aureus [2] = experiment: Antibacterial activity against Staphylococcus aureus ATCC 29213 assessed as inhibition of bacterial growth incubated for 24 hrs in presence of 2.5 mM Ca2+ by broth dilution method; assay type: functional
Staphylococcus aureus [3] = experiment: Antibacterial activity against methicillin-resistant Staphylococcus aureus NCTC 10442 assessed as inhibition of bacterial growth incubated for 24 hrs in presence of 2.5 mM Ca2+ by broth dilution method; assay type: functional
Klebsiella pneumoniae [4] = experiment: Antibacterial activity against Klebsiella pneumoniae ATCC 10031 assessed as inhibition of bacterial growth incubated for 24 hrs in presence of 2.5 mM Ca2+ by broth dilution method; assay type: functional
Staphylococcus aureus [5] = experiment: Antibacterial activity against Staphylococcus aureus ATCC 29213 assessed as inhibition of bacterial growth incubated for 24 hrs in presence of 1 mM Mg2+ by broth dilution method; assay type: functional
Staphylococcus aureus [6] = experiment: Antibacterial activity against Staphylococcus aureus ATCC 29213 assessed as inhibition of bacterial growth incubated for 24 hrs in presence of 19 uM Zn2+ by broth dilution method; assay type: functional
Staphylococcus aureus [7] = experiment: Antibacterial activity against methicillin-resistant Staphylococcus aureus NCTC 10442 assessed as inhibition of bacterial growth incubated for 24 hrs in presence of 19 uM Zn2+ by broth dilution method; assay type: functional
Klebsiella pneumoniae [8] = experiment: Antibacterial activity against Klebsiella pneumoniae ATCC 10031 assessed as inhibition of bacterial growth incubated for 24 hrs in presence of 19 uM Zn2+ by broth dilution method; assay type: functional
Staphylococcus aureus [9] = experiment: Antibacterial activity against Staphylococcus aureus ATCC 29213 assessed as inhibition of bacterial growth incubated for 24 hrs in presence of 20 uM Fe2+ by broth dilution method; assay type: functional
Staphylococcus aureus [10] = experiment: Antibacterial activity against methicillin-resistant Staphylococcus aureus NCTC 10442 assessed as inhibition of bacterial growth incubated for 24 hrs in presence of 20 uM Fe2+ by broth dilution method; assay type: functional
Escherichia coli [11] = experiment: Antibacterial activity against Escherichia coli ATCC 25922 assessed as inhibition of bacterial growth incubated for 24 hrs in presence of 20 uM Fe2+ by broth dilution method; assay type: functional
Klebsiella pneumoniae [12] = experiment: Antibacterial activity against Klebsiella pneumoniae ATCC 10031 assessed as inhibition of bacterial growth incubated for 24 hrs in presence of 20 uM Fe2+ by broth dilution method; assay type: functional
Staphylococcus aureus [13] = experiment: Antibacterial activity against Staphylococcus aureus ATCC 29213 assessed as inhibition of bacterial growth incubated for 24 hrs in presence of 20 uM Fe3+ by broth dilution method; assay type: functional
[14] = Cytotoxicity against mouse fibroblast NCTC clone 929 cells assessed as viable cells at […] microg/ml incubated for 24 hrs by CCK-8 assay; assay type: toxicity, cell-based; conditions: NCTC clone 929 (L929) fibroblast cells, dose 1.56 µg/ml, read-out: Activity
[15] = Cytotoxicity against mouse fibroblast NCTC clone 929 cells assessed as viable cells at 6.25 microg/ml incubated for 24 hrs by CCK-8 assay; assay type: toxicity, cell-based; conditions: NCTC clone 929 (L929) fibroblast cells, at 6.25 µg/mL, read-out: Activity
[16] = Cytotoxicity against mouse fibroblast NCTC clone 929 cells assessed as viable cells at 12.5 microg/ml incubated for 24 hrs by CCK-8 assay; assay type: toxicity, cell-based; conditions: NCTC clone 929 (L929) fibroblast cells, at 12.5 µg/mL, read-out: Activity
[17] = Cytotoxicity against human HepG2 cells assessed as viable cells at 6.25 microg/ml incubated for 24 hrs by CCK-8 assay; assay type: toxicity, cell-based; conditions: at 6.25 µg/mL, read-out: Activity
[18] = Cytotoxicity against human HepG2 cells assessed as viable cells at 12.5 microg/ml incubated for 24 hrs by CCK-8 assay; assay type: toxicity, cell-based; conditions: at 12.5 µg/mL, read-out: Activity
Staphylococcus aureus [19] = experiment: Bactericidal activity against methicillin-resistant Staphylococcus aureus NCTC 10442 assessed as bacterial reduction at 4 time of MIC concentration incubated for 2 hrs by time-kill assay; assay type: functional
Staphylococcus aureus [20] = experiment: Bactericidal activity against methicillin-resistant Staphylococcus aureus NCTC 10442 assessed as bacterial killing at 8 time of MIC concentration incubated for 0.5 hrs by time-kill assay; assay type: functional
Staphylococcus aureus [21] = experiment: Drug resistance, ratio of MIC for Staphylococcus aureus NCTC 10442 after 21 passages to MIC for Staphylococcus aureus NCTC 10442 during first exposure; assay type: functional
Lipoteichoic acid [22] = experiment: Displacement of BODIPY-TR-cadaverine from Bacillus subtilis lipoteichoic acid (LTA) assessed as increase in fluorescence intensity by fluorescence spectrophotometric analysis
Lipoteichoic acid [23] = experiment: Displacement of BODIPY-TR-cadaverine from Bacillus subtilis lipoteichoic acid (LTA) assessed as increase in fluorescence intensity at 1 times MIC measured after 30 mins by fluorescence spectrophotometric analysis
Lipopolysaccharide (LPS) = experiment: Displacement of BODIPY-TR-cadaverine from Escherichia coli lipopolysaccharide (LPS) assessed as increase in fluorescence intensity at 1 times MIC measured after 30 mins by fluorescence spectrophotometric analysis; assay type: subcellular
Lipoteichoic acid [24] = experiment: Displacement of BODIPY-TR-cadaverine from Bacillus subtilis lipoteichoic acid (LTA) assessed as increase in fluorescence intensity at 4 times MIC measured after 30 mins by fluorescence spectrophotometric analysis
Staphylococcus aureus [25] = experiment: Bactericidal activity against methicillin-resistant Staphylococcus aureus NCTC 10442 assessed as down-regulation of biological processes related gene expression by measuring UMP biosynthetic process (GO:0044,205) at 4 times of MIC concentration measured after 90 mins incubation by RNA sequencing (RNA-seq) study; assay type: functional, organism-based
Escherichia coli [26] = experiment: Bactericidal activity against Escherichia coli ATCC 25922 assessed as down-regulation of intracellular sequestering of iron ion (GO:0006880) at 4 times of MIC concentration measured after 90 mins incubation by RNA sequencing (RNA-seq) study; assay type: functional, organism-based
Staphylococcus aureus [27] = experiment: (§1) Bactericidal activity against methicillin-resistant Staphylococcus aureus NCTC 10442 assessed as change in amino acid metabolism gene expression at 4 times of MIC concentration measured after 90 mins incubation by RNA sequencing (RNA-seq) study; assay type: functional, organism-based
Escherichia coli [28] = experiment: Bactericidal activity against Escherichia coli ATCC 25922 assessed as change in xenobiotics biodegradation and metabolism gene expression at 4 times of MIC concentration measured after 90 mins incubation by RNA sequencing (RNA-seq) study; assay type: functional, organism-based
Staphylococcus aureus [29] = experiment: as §1, with “cell death associated gene expression by measuring down-regulation of biofilm formation plfA (DX983_RS01360) and plfB (DX983_RS01355)” for “amino acid metabolism”; assay type: functional, organism-based
Staphylococcus aureus [30] = experiment: as §1, with “cell death associated gene expression by measuring down-regulation of quorum sensing gene DX983_RS05700” for “amino acid metabolism”; assay type: functional, organism-based
Escherichia coli [31] = experiment: Bactericidal activity against Escherichia coli ATCC 25922 assessed as change in cell death associated gene expression by measuring down-regulation of LPS export ABC transporter periplasmic-encoding gene (D1792_RS11370) gene expression at 4 times of MIC concentration measured after 90 mins incubation by RNA sequencing (RNA-seq) study; assay type: functional, organism-based
Staphylococcus aureus [32] = experiment: as §1, with “metabolic stress associated gene expression by measuring down-regulation of glucosaminidase domain-containing protein (atl, DX983_RS02250)” for “amino acid metabolism”; assay type: functional, organism-based; conditions: NTCC 10442
[33] = Toxicity in C57BL6 mouse assessed as signs of toxicity treated in eyeballs 4 times in a day for 3 consecutive days; conditions: in vivo, topical_or_ocular

`C=C(C)[C@@H]1CCC(C)=C[C@H]1c1c(OCCCNC(=N)N)cc(CCCCC)cc1OCCCNC(=N)N` showed an MIC (Staphylococcus aureus [1]) of 0.39 µg/mL (≈ 0.761 µM), an MIC (Staphylococcus aureus [2]) of 1.56 µg/mL and an MIC (Staphylococcus aureus [3]) of 0.39 µg/mL. For the same molecule, the MIC (Klebsiella pneumoniae [4]) was 6.25 µg/mL, the MIC (Staphylococcus aureus [5]) was 1.56 µg/mL and the MIC (Staphylococcus aureus [6]) was 0.78 µg/mL. It also gave an MIC (Staphylococcus aureus [7]) of 0.39 µg/mL, an MIC (Klebsiella pneumoniae [8]) of 3.12 µg/mL and an MIC (Staphylococcus aureus [9]) of 0.39 µg/mL. For the same molecule, the MIC (Staphylococcus aureus [10]) was 0.39 µg/mL, the MIC (Escherichia coli [11]) was 1.56 µg/mL and the MIC (Klebsiella pneumoniae [12]) was 3.12 µg/mL. The MIC (Staphylococcus aureus [13]) was 0.39 µg/mL, the viability at 24 h, 1.56 microg/ml [14] was 94% and the viability at 24 h, 6.25 microg/ml [15] was 86.2%. For the same molecule, the viability at 24 h, 12.5 microg/ml [16] was 80.4%, the viability at 24 h, 6.25 microg/ml [17] was 91.3% and the viability at 24 h, 12.5 microg/ml [18] was 91.3%. The Activity (Staphylococcus aureus [19]) was 3 log10FFU/ml, the “inhibition (INH)” value (Staphylococcus aureus [20]) was 99.9% and the Ratio (Staphylococcus aureus [21]) was 4. The Activity (Lipoteichoic acid [22]) was “Dose-Dependent Effect”, the Activity (Lipoteichoic acid [23]) was 11.2% and the Activity (Lipopolysaccharide (LPS)) was 27.7%. For the same molecule, the Activity (Lipoteichoic acid [24]) was 33.7%, the Activity (Staphylococcus aureus [25]) was “Active” and the Activity (Escherichia coli [26]) was “Active”. For the same molecule, the Activity (Staphylococcus aureus [27]) was “Active”, the Activity (Escherichia coli [28]) was “Active” and the Activity (Staphylococcus aureus [29]) was “Active”. The Activity (Staphylococcus aureus [30]) was “Active”, the Activity (Escherichia coli [31]) was “Active” and the Activity (Staphylococcus aureus [32]) was “Active”. For the same molecule, the Activity [33] was “Non-Toxic”.
